From patent US10597388B2, “Pyridazinone herbicides” (FMC CORPORATION, priority 2014, dated 2020)

How the values were obtained:
Experiment in all cases: Test C greenhouse herbicide test, pre- and postemergence
Assay type in all cases: in vivo
[1] = test system: barnyardgrass (Echinochloa crus-galli)
Summary of the method: (§1)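 Two application timings: at sowing into a soil/sand blend, and on 2–18 cm seedlings in peat-vermiculite potting mix. A non-phytotoxic, surfactant-containing solvent carried the compounds. Plants were compared with controls and rated visually on 0–100 after 13–15 d.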

[2] = test system: blackgrass (Alopecurus myosuroides)
Summary of the method: as §1

corn (Zea mays) = test system: corn (Zea mays)
Summary of the method: as §1

[3] = test system: foxtail, giant (giant foxtail, Setaria faberii)
Summary of the method: as §1

[4] = test system: galium (catchweed bedstraw, Galium aparine)
Summary of the method: as §1

[5] = test system: johnsongrass (Sorghum halepense)
Summary of the method: as §1

[6] = test system: lambsquarters (Chenopodium album)
Summary of the method: as §1

[7] = test system: morningglory (Ipomoea coccinea)
Summary of the method: as §1

[8] = test system: nutsedge, yellow (yellow nutsedge, Cyperus esculentus)
Summary of the method: as §1

[9] = test system: pigweed (Amaranthus retroflexus)
Summary of the method: as §1

[10] = test system: ragweed (common ragweed, Ambrosia elatior)
Summary of the method: as §1

[11] = test system: ryegrass, Italian (Italian ryegrass, Lolium multiflorum)
Summary of the method: as §1

soybean (Glycine max) = test system: soybean (Glycine max)
Summary of the method: as §1

[12] = test system: velvetleaf (Abutilon theophrasti)
Summary of the method: as §1

[13] = test system: waterhemp (common waterhemp, Amaranthus rudis)
Summary of the method: as §1

[14] = test system: wheat (winter wheat, Triticum aestivum)
Summary of the method: as §1

[15] = Postemergence, 31 g ai/ha, scale 0 to 100 (0 no effect, 100 complete control)
[16] = Postemergence, 125 g ai/ha, scale 0 to 100, 0 is no effect, 100 is complete control
[17] = Postemergence, 250 g ai/ha, scale 0 to 100, 0 no effect, 100 complete control, 13 to 15 d
[18] = Preemergence, 31 g ai/ha, scale 0 to 100, 0 is no effect, 100 is complete control
[19] = Preemergence, 62 g ai/ha, scale 0 to 100, 0 is no effect, 100 is complete control
[20] = Preemergence, 125 g ai/ha, scale 0 to 100, 0 is no effect, 100 is complete control
[21] = Preemergence, 250 g ai/ha, scale 0 to 100 (0 no effect, 100 complete control)
[22] = postemergence, 62 g ai/ha, scale 0 to 100, 0 no effect, 100 complete control

Cc1nn(C)c(=O)c(-c2c(C)sc3ccc(Cl)cc23)c1O [Compound 104]
30: Plant response rating, Blackgrass [2, 20] | Plant response rating, Corn (corn (Zea mays); [17]) | Johnsongrass plant response rating [5, 21] | Plant response rating, Nutsedge, Yellow [8, 18]
80: Barnyardgrass plant response rating [1, 21] | Corn plant response rating (corn (Zea mays); [22]) | Plant response rating, Morningglory [7, 18] | Plant response rating, Velvetleaf [12, 19]
85: Plant response rating, Foxtail, Giant [3, 17] | Plant response rating, Foxtail, Giant [3, 19] | Plant response rating, Galium [4, 19] | Plant response rating, Lambsquarters [6, 18] | Plant response rating, Lambsquarters [6, 19] | Nutsedge, Yellow plant response rating [8, 21] | Plant response rating, Ragweed [10, 15] | Plant response rating, Ragweed [10, 18] | Plant response rating, Ryegrass, Italian [11, 19]
60: Blackgrass plant response rating [2, 21] | Plant response rating, Nutsedge, Yellow [8, 16]
25: Plant response rating, Barnyardgrass [1, 19]
95: Plant response rating, Galium [4, 15] | Plant response rating, Lambsquarters [6, 20] | Lambsquarters plant response rating [6, 21] | Plant response rating, Morningglory [7, 19] | Plant response rating, Pigweed [9, 15] | Plant response rating, Ragweed [10, 20] | Ryegrass, Italian plant response rating [11, 21] | Plant response rating, Waterhemp [13, 17]
40: Plant response rating, Barnyardgrass [1, 20] | Plant response rating, Velvetleaf [12, 18]
90: Plant response rating, Galium [4, 18] | Plant response rating, Galium [4, 20] | Plant response rating, Lambsquarters [6, 15] | Plant response rating, Ragweed [10, 19] | Plant response rating, Ryegrass, Italian [11, 15] | Plant response rating, Ryegrass, Italian [11, 16] | Plant response rating, Ryegrass, Italian [11, 17] | Plant response rating, Ryegrass, Italian [11, 20] | Plant response rating, Velvetleaf [12, 17] | Plant response rating, Velvetleaf [12, 20] | Velvetleaf plant response rating [12, 21] | Plant response rating, Waterhemp [13, 19]
50: Plant response rating, Blackgrass [2, 16] | Plant response rating, Corn (corn (Zea mays); [16]) | Plant response rating, Foxtail, Giant [3, 15] | Plant response rating, Velvetleaf [12, 15]
20: Plant response rating, Barnyardgrass [1, 15] | Plant response rating, Johnsongrass [5, 19] | Plant response rating, Johnsongrass [5, 20]
15: Plant response rating, Blackgrass [2, 15] | Plant response rating, Blackgrass [2, 19] | Plant response rating, Corn (corn (Zea mays); [20])
75: Plant response rating, Foxtail, Giant [3, 16] | Plant response rating, Foxtail, Giant [3, 18] | Plant response rating, Foxtail, Giant [3, 20] | Plant response rating, Nutsedge, Yellow [8, 17] | Plant response rating, Nutsedge, Yellow [8, 20] | Plant response rating, Waterhemp [13, 18]
10: Plant response rating, Barnyardgrass [1, 18] | Corn plant response rating (corn (Zea mays); [21]) | Plant response rating, Johnsongrass [5, 15] | Plant response rating, Johnsongrass [5, 18] | Plant response rating, Soybean (soybean (Glycine max); [16]) | Plant response rating, Soybean (soybean (Glycine max); [17]) | Plant response rating, Wheat [14, 17]
98: Plant response rating, Galium [4, 16] | Plant response rating, Galium [4, 17] | Galium plant response rating [4, 21] | Plant response rating, Morningglory [7, 15] | Morningglory plant response rating [7, 21] | Plant response rating, Ragweed [10, 16] | Plant response rating, Velvetleaf [12, 16]
45: Plant response rating, Barnyardgrass [1, 16] | Plant response rating, Nutsedge, Yellow [8, 19]
70: Plant response rating, Waterhemp [13, 15]
55: Plant response rating, Barnyardgrass [1, 17] | Plant response rating, Blackgrass [2, 17] | Plant response rating, Nutsedge, Yellow [8, 15] | Plant response rating, Ryegrass, Italian [11, 18]
100: Foxtail, Giant plant response rating [3, 21] | Plant response rating, Lambsquarters [6, 16] | Plant response rating, Lambsquarters [6, 17] | Plant response rating, Morningglory [7, 16] | Plant response rating, Morningglory [7, 17] | Plant response rating, Morningglory [7, 20] | Plant response rating, Pigweed [9, 16] | Plant response rating, Pigweed [9, 17] | Plant response rating, Pigweed [9, 18] | Plant response rating, Pigweed [9, 19] | Plant response rating, Pigweed [9, 20] | Pigweed plant response rating [9, 21] | Plant response rating, Ragweed [10, 17] | Ragweed plant response rating [10, 21] | Plant response rating, Waterhemp [13, 16] | Plant response rating, Waterhemp [13, 20] | Waterhemp plant response rating [13, 21]
5: Plant response rating, Blackgrass [2, 18] | Plant response rating, Corn (corn (Zea mays); [15]) | Plant response rating, Corn (corn (Zea mays); [18]) | Plant response rating, Johnsongrass [5, 16] | Plant response rating, Johnsongrass [5, 17] | Plant response rating, Wheat [14, 16] | Plant response rating, Wheat [14, 18] | Plant response rating, Wheat [14, 19] | Plant response rating, Wheat [14, 20]
35: Barnyardgrass plant response rating [1, 22] | Blackgrass plant response rating [2, 22]
0: Plant response rating, Corn (corn (Zea mays); [19]) | Plant response rating, Soybean (soybean (Glycine max); [15]) | Plant response rating, Soybean (soybean (Glycine max); [18]) | Plant response rating, Soybean (soybean (Glycine max); [19]) | Plant response rating, Soybean (soybean (Glycine max); [20]) | Soybean plant response rating (soybean (Glycine max); [21]) | Plant response rating, Wheat [14, 15] | Wheat plant response rating [14, 21]
